Source: paper PMC9030827, “In Vitro Effects of Mitochondria-Targeted Antioxidants in a Small-Cell Carcinoma of the Ovary of Hypercalcemic Type and in Type 1 and Type 2 Endometrial Cancer” (Biomedicines, 2022)
Read-outs that look alike come from different tables or passages of the source.

Key:
HFF-1 cells = assay: Neutral red (NR) cell viability assay; format: cell-based; details: Homo sapiens
Procedure: Experiments were performed using the following cell lines: Ishikawa, Hec50co, COV434, and HFF-1. The Ishikawa cell line (RRID: CVCL_2529) was established from an endometrial adenocarcinoma. The Hec50co cell line (RRID: CVCL_4Y59) consists of poorly differentiated endometrial tumor cells isolated from a patient with advanced disease. Both the Ishikawa and Hec50co cell lines were kindly provided by Dr. Kim K. Leslie (The University of New Mexico Health Sciences Center, Albuquerque, NM, USA). COV434 (RRID: CVCL_2010) were initially isolated from a patient diagnosed with a granulosa cell tumor but were recently classified as cells from a small-cell carcinoma of the ovary, hypercalcemic type.The COV434 cells were purchased from the European Collection of Authenticated Cell Cultures (ECACC) (#07071909). HFF-1 (RRID: CVCL_3285) is an immortalized human foreskin fibroblasts cell line, obtained from the American Type Culture Collection (ATCC), which was used as control, as they are non-tumorous cells. The Ishikawa and Hec50co cells were maintained in Dulbecco’s Modified Eagle Medium/F12 (DMEM/F12) supplemented with 5% Foetal Bovine Serum (FBS). COV434 cells were maintained in DMEM/F12 supplemented with 10% FBS. HFF-1 were maintained in Roswell Park Memorial Institute 1640 (RPMI 1640) supplemented with 10% FBS. All mediums were supplemented with 1% AB-AM and all cells were kept at 37 °C with 5% CO2. The treatment with the compounds was done in the respective cell medium supplemented with 2% FBS and 24 h after platting the cells in the culture medium with 5% FBS to allow their adherence.
(§1) The Ishikawa, Hec50co, COV434, and HFF-1 cell lines were plated at a density of 5 × 10^4 cells/well in transparent 96-well plates. After 24 h, the cells were treated with Mito6_TPP, Mito6_picol., or Mito6_isoq. (0.01–100 μM) and incubated at 37 °C with 5% CO2 for 24, 48, or 72 h. […] The conditions of the methylthiazolyldiphenyl-tetrazolium bromide (MTT) assay were adapted from the work of Banerjee et al.. Briefly, MTT was added to a final concentration of 0.5 mg/mL, and the cells were incubated for 3 h at 37 °C with 5% CO2. After the 3 h, purple MTT formazan crystals were dissolved by agitation for 15 min in a solution of DMSO/isopropanol (ratio 3:1) and quantified spectrophotometrically at 540 nm. The neutral red (NR) assay conditions were based on the work developed by Repetto et al.. Briefly, after the incubation time, cells were incubated with NR at 40 μg/mL in an FBS-free cell medium for 3 h. The cells were then incubated with a solution of 50% ethanol (96% v/v), 49% deionized water, and 1% glacial acetic acid, with shaking for 15 min. The NR extracted from the cells was measured at 540 nm. The LDH cytotoxicity assay was not performed on the HFF-1 cells due to the lack of evidence of cell death at the concentrations tested. After the incubation time, this assay was performed using a Thermo Scientific Pierce LDH Cytotoxicity Assay Kit according to the manufacturer’s instructions. For all assays, the absorbance was read using a BioTek Synergy HTX Multi-Mode Microplate Reader equipped with BioTek Gen5 Data Collection and Analysis Software (BioTek Instruments, Winooski, VT, USA).
Data were evaluated using the one- or two-way analysis of variance (ANOVA) test followed by Bonferroni’s test for multiple comparisons. The data presented was expressed as mean ± SEM (Standard Error of the Mean) of a minimum of three and a maximum of seven independent experiments performed in triplicate. Values of p < 0.05 were considered statistically significant. Half of the maximal effective concentration (EC50) values were estimated by interpolation of dose-response curves and reported as a mean with a 95% confidence interval (CI 95%). All statistical analysis was performed using GraphPad Prism Software 8.0 (GraphPad Software, Inc., San Diego, CA, USA). […]

Hec50co cells [1] = assay: Cell morphology by Giemsa staining; format: cell-based, human; details: 72 h, 5 μM Mito6_TPP, 20 μM Mito6_picol., 10 μM Mito6_isoq.
Procedure: Morphological changes in all cell lines were evaluated by phase-contrast microscopy (Eclipse TS100 Inverted Microscope, Nikon, Tokyo, Japan) and Giemsa staining. […] The cells were plated in 24-well plates with coverslips using the densities of 1 × 10^5 cells/well in Ishikawa and Hec50co and 2.5 × 10^5 cells/well in COV434 and HFF-1. After adherence, the cells were treated with Mito6_TPP (5 μM), Mito6_picol. (20 μM), or Mito6_isoq. (10 μM) and incubated at 37 °C with 5% CO2 for 72 h. For Giemsa staining, the cells were fixated with paraformaldehyde 4% in Phosphate Buffered Saline (PBS) for 15 min, stained with Giemsa solution for 30 min, mounted with DPX, and observed through bright field microscopy. For Höechst staining, the cells were incubated with 0.5 μg/mL Höechst 33342 in PBS for 20 min in the dark, mounted in Fluoroshield, and observed under a fluorescence microscope equipped with an excitation filter with maximum transmission at 360/400 nm. In both stainings, the cells were observed using the microscope Eclipse CI (Nikon, Japan) and the images were processed with Nikon NIS Elements Image Software (Nikon, Japan).

COV434 cells = assay: Intracellular ROS/RNS assessment, DCFH-DA probe; format: cell-based, human; details: COV434, 10 μM, 2 h immediately after addition
Procedure: (§2) The assay for the evaluation of the levels of ROS/RNS was based on the work of Bak, et al.. All cell lines were cultured in black 96-well plates at a density of 5 × 10^4 cells/well and allowed to adhere for 24 h. After adherence, the cells were incubated with 2′,7′-dichlorodihydrofluorescein diacetate (DCFH-DA) (25 μM) for 1 h at 37 °C in the dark. The DCFH-DA probe allows the detection of intracellular ROS, more specifically H2O2, HO^● and ROO^●, and RNS, more specifically, ^●NO and ONOO^− [51]. The cells were then treated with 10 μM of either Mito6_TPP, Mito6_picol., or Mito6_isoq. The stress inducer H2O2 (200 μM) was used as the positive control. The fluorescence provided by the probe was measured immediately and every 5 min for 2 h at 37 °C using a BioTek Synergy HTX Multi-Mode Microplate Fluorimeter equipped with BioTek Gen5 Data Collection and Analysis Software (BioTek Instruments, Winooski, VT, USA) (excitation: 485 nm; emission: 530 nm).

Hec50co cells [2] = assay: Intracellular ROS/RNS assessment, DCFH-DA probe; format: cell-based, human; details: 10 μM, 2 h immediately after addition
Procedure: as §2

Ishikawa cells = assay: Intracellular ROS/RNS assessment, DCFH-DA probe; format: cell-based, human; details: 10 μM, 2 h immediately after addition
Procedure: as §2

[3] = system: Ishikawa, Hec50co, COV434, and HFF-1 cells; assay: Cell viability (MTT and NR assays), statements over all cell lines; format: cell-based, human
Procedure: as §1, with “The LDH cytotoxicity assay was not performed on the HFF-1 cells due to the lack of evidence of cell death at the concentrations tested. After the incubation time, this assay was performed using a Thermo Scientific Pierce LDH Cytotoxicity Assay Kit according to the manufacturer’s instructions.” left out

[4] = HFF-1, 48 h of incubation, read-out: EC50 (decrease of viability), NR Assay

Compound | EC50 (HFF-1 cells; HFF-1, 24 hours of incubation, read-out: EC50 (decrease of viability), NR assay) [µM] | EC50 (HFF-1 cells; [4]) [µM] | EC50 (HFF-1 cells; HFF-1, 72 hours of incubation, read-out: EC50 (decrease of viability), NR assay) [µM] | Cell morphology changes (Giemsa staining) (Hec50co cells [1]) | Intracellular ROS levels vs untreated cells (COV434 cells) | EC50 (HFF-1 cells; HFF-1, 24 h, read-out: EC50 (decrease of viability), NR assay) [µM] | EC50 (HFF-1 cells; HFF-1, 48 h, read-out: EC50 (decrease of viability), NR Assay) [µM] | EC50 (HFF-1 cells; HFF-1, 72 h, read-out: EC50 (decrease of viability), NR assay) [µM] | Intracellular ROS levels vs untreated cells (Hec50co cells [2]) | Intracellular ROS levels vs untreated cells (Ishikawa cells) | Lowest concentration inducing a significant decrease in cell viability [3] [µM]
O=C(/C=C/c1ccc(O)c(O)c1)NCCCCCCCCCC[n+]1ccc2ccccc2c1 [Mito6_isoq.] | > 100 | 97 | 68.6 |  |  |  |  |  |  |  | 
Cc1cc[n+](CCCCCCCCCCNC(=O)/C=C/c2ccc(O)c(O)c2)cc1 [Mito6_picol.] |  | > 100 |  | did not induce any morphological changes | no effects |  |  |  |  |  | 
O=C(/C=C/c1ccc(O)c(O)c1)NCCCCCCCCCC[P+](c1ccccc1)(c1ccccc1)c1ccccc1 [Mito6_TPP] |  |  |  | altered cell shapes and indications of chromatin condensation | faster and more accentuated decrease in ROS levels | 73.6 | 57 | 45.1 | faster and more accentuated decrease in ROS levels | faster and more accentuated decrease in ROS levels | 1
